From patent US9962391B2, “Composition and method for compounded therapy” (CMPD LICENSING, LLC, priority 2011, dated 2018) come the findings set out here.

Data set [1] is described as follows: Forced degradation study (heat and acid) on Meloxicam/Gabapentin/Lidocaine/Prilocaine Cream 0.09%/2.5%/2.15%/2.15%. Particulars: untreated, heat treated and acid treated samples, undiluted extracts. Here is the method: (§1) The column temperature was 50° C.
as §1

Data set [2] in a line: 198 Day Potency Test of transdermal cream including meloxicam, lamotrigine, lidocaine, and prilocaine. The format is physicochemical. Particulars: 198 days, stored at approximately 20° C. to 25° C., in cream, HPLC; for % of EXP.: relative to expected amount. Here is the method:
(§2) The sample was stored in approximately 20° C. to 25° C. (68° F. to 77° F.) conditions, and contained one large white tube with cream in a clear bag.

Data set [3] in a line: 100 Day Potency Test of transdermal cream including meloxicam, topiramate, lidocaine, and prilocaine. The format is physicochemical. The note with it: 100 days, stored at approximately 20° C. to 25° C., in cream, HPLC; for % of EXP.: relative to expected amount. As to the method: as §2

The structures appear in SMILES notation.

On to `NCC1(CC(=O)O)CCCCC1` [Gabapentin], for which the “Degradation seen in Total Ion Chromatograms (TIC)” value in data set [1] is “major degradant at 1.18 minute was caused both by acid and by heat”.

Turning to `CCCNC(C)C(=O)Nc1ccccc1C` (stereo not shown) [Prilocaine], in data set [2], the “Results (amount of analyte found)” value came out at 2.118% and the “% of EXP.” value came out at 105.9%. In data set [3], the “Results (amount of analyte found)” value was determined as 1.899% and the “% of EXP.” value was determined as 95.0%.

Take `Nc1nnc(-c2cccc(Cl)c2Cl)c(N)n1` [Lamotrigine]: in data set [2], the “Results (amount of analyte found)” value came out at 2.463% and the “% of EXP.” value worked out at 98.5%.

For `CCN(CC)CC(=O)Nc1c(C)cccc1C` [Lidocaine], in data set [2], the “Results (amount of analyte found)” value turned out to be 1.927% and the “% of EXP.” value is 96.4%. In data set [3], the “Results (amount of analyte found)” value was found to be 1.700% and the “% of EXP.” value was 85.0%.

For the molecule `CC1(C)O[C@@H]2[C@@H](CO[C@@]3(COS(N)(=O)=O)OC(C)(C)O[C@@H]23)O1` [Topiramate], in data set [3], the “Results (amount of analyte found)” value is 2.368% and the “% of EXP.” value is listed as 94.7%.
